Among the data in PubChem BioAssay AID588390 (Sanford-Burnham Center for Chemical Genomics, 2011) are IC50 values, retold here.

Active and inactive are the calls of the source. The rule behind the calls is not given here.

Ubiquitin-conjugating enzyme E2 N (Homo sapiens), sequence (P61088 whole entry, looked up): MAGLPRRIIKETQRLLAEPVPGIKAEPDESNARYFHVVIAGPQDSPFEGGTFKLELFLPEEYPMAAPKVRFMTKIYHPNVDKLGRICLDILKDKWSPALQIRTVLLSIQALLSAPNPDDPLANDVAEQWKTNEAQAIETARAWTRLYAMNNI

The experiment has as its target Ubiquitin-conjugating enzyme E2 N (Homo sapiens) (UniProt P61088). The experiment in a line: UBC13 polyubiquitination inhibitor analogues, SAR follow-up, biochemical, TR-FRET, set 2 (AID 588390).
For the molecule `CC1(C)Cc2c(sc(NC(=O)C(=O)NCC3CCCO3)c2C(N)=O)CO1` (configuration not stated), the IC50 is 0.63 µM. As for `O=C(CN1CCC(n2cnc3cc(F)ccc32)CC1)Nc1ccccc1Br`, the entry is “inactive”; as for `Cc1cccc(N2CCN(CCCNC(=O)C3CCCN(c4ncnc5c4nc4n5CCCCC4)C3)CC2C)c1` (configuration not stated), “inactive”. As for `CC1(C)Cc2c(sc(NC(=O)C(=O)N3CCCC3)c2C(N)=O)CO1`, the figure is 0.58 µM; as for `Cc1ccc(C)c(N2CCN(CCCNC(=O)C3CCCN(c4ncnc5c4nc4n5CCCCC4)C3)CC2)c1` (configuration not stated), 9.81 µM; as for `CC1(C)Cc2c(sc(NC(=O)C(=O)NCCN3CCOCC3)c2C(N)=O)CO1`, 1.34 µM.

In the case of `Cc1nc2cc(F)ccc2n1C1CCN(CC(=O)Nc2ccccc2)CC1`, the IC50 was > 100 µM (inactive). For the molecule `CCOc1ccc(NC(=O)CN2CCC(n3cnc4cc(F)ccc43)CC2)cc1`, the IC50 is > 100 µM (inactive). In the case of `COc1ccc(OC)c(NC(=O)CN2CCC(n3cnc4cc(F)ccc43)CC2)c1`, the IC50 result was “inactive”. As for `COc1ccccc1N1CCN(CCCNC(=O)C2CCCN(c3ncnc4c3nc3n4CCCCC3)C2)CC1` (configuration not stated), the IC50 result is “inactive”. The figure for `O=C(CN1CCC(n2cnc3cc(F)ccc32)CC1)Nc1cccc(C(F)(F)F)c1` is > 100 µM (inactive). For the molecule `Cc1nc2ccccc2n1C1CCN(CC(=O)Nc2ccccc2Oc2ccccc2)CC1`, the IC50 is > 100 µM (inactive). As for `O=C(c1ccco1)N1CCN(C(=O)C2CCN(c3ncnc4c3nc3n4CCCCC3)CC2)CC1`, the figure is > 100 µM (inactive). The figure for `O=C(CN1CCC(n2c(C(F)(F)F)nc3cc(F)ccc32)CC1)Nc1ccc2c(c1)OCO2` is > 100 µM (inactive). `O=C(C1CCN(c2ncnc3c2nc2n3CCCCC2)CC1)N1CCN(c2ccccn2)CC1`: the IC50 entry is “inactive”. As for `COc1ccc(NC(=O)CN2CCC(n3c(C)nc4cc(F)ccc43)CC2)c(OC)c1`, the IC50 was > 100 µM (inactive). The entry for `O=C(C1CCN(c2ncnc3c2nc2n3CCCCC2)CC1)N1CCN(c2ccc(F)cc2)CC1` is “inactive”. For `Cc1cccc(NC(=O)CN2CCC(n3cnc4cc(F)ccc43)CC2)c1C`, the IC50 is > 100 µM (inactive). `CC1(C)Cc2c(sc(NC(=O)C(=O)NCC3CCCO3)c2C(=O)O)CO1` (configuration not stated): the IC50 entry is “inactive”. The entry for `COc1ccc(OC)c(NC(=O)CN2CCC(n3c(C)nc4cc(F)ccc43)CC2)c1` is “inactive”.

On to `O=C(CN1CCC(n2cnc3cc(C(F)(F)F)ccc32)CC1)Nc1ccc2c(c1)OCCO2`, for which the IC50 was > 100 µM (inactive).

Consider `CCOc1ccccc1NC(=O)CN1CCC(n2cnc3cc(F)ccc32)CC1`, for which the IC50 was 4 µM.

For the molecule `O=C(NCCCN1CCN(c2ccc(F)cc2)CC1)C1CCCN(c2ncnc3c2nc2n3CCCCC2)C1` (configuration not stated), the IC50 was 2.91 µM. As for `COC(=O)c1c(NC(=O)C(=O)NCC2CCCO2)sc2c1CC(C)(C)OC2` (configuration not stated), the figure is 4.25 µM; as for `O=C(C1CCN(c2ncnc3c2nc2n3CCCCC2)CC1)N1CCN(c2ncccn2)CC1`, > 100 µM (inactive); as for `O=C(C1CCN(c2ncnc3c2nc2n3CCCCC2)CC1)N1CCN(Cc2ccccc2)CC1`, 2.75 µM. The figure for `O=C(NCCCN1CCN(c2ccccc2)CC1)C1CCCN(c2ncnc3c2nc2n3CCCCC2)C1` (configuration not stated) is 3.3 µM.
